# Assay results: patent publication US9624286B2, “Composition comprising peptide derived from adiponectin” (KNU-INDUSTRY COOPERATION FOUNDATION, priority 2013, dated 2017)
# Assays:
# [1] = tested on: NIH3T3 cells; experiment: Tests for facilitating the proliferation of mouse fibroblast cell line NIH3T3 (CCK-8); type: cell-based; conditions: peptide 10 μM; 24, 48 and 72 hours; CCK-8 absorbance at 475 nm; FIG. 1
# Protocol: The NIH3T3 cells (mouse fibroblast cell line, ATCC CRL-1658, USA), along with 100 μl of Dulbecco's Modified Eagle medium (DMEM), were added to each well of the 96-well microplate in the concentration of 5×10^3 cells per well, and then cultured in a 5% CO2 incubator at 37° C. for 24 hours. The peptide solutions (100 μl) having the respective peptide of SEQ ID NOs: 1, 2, 3 and 5 in the concentration of 10 μM were added to each well. While incubating the cells for 24, 48, and 72 hours therefrom, 10 μl of CCK-8 (Dojindo Laboratories, Japan) was added to each well and then the respective absorbance at 475 nm was measured with Spectramax plus 190 plate reader (Molecular Devices, USA).
# [2] = tested on: procollagen type-1; experiment: Activation of the procollagen type-1 expression in fibroblasts (Western blotting); type: cell-based, mouse; conditions: NIH3T3 cells, peptide 0.1, 1 and 10 μM, 48 hours, concentration-dependent, FIG. 2
# Protocol: Since facilitation of the collagen fiber synthesis is one of the principal means for inhibiting skin aging, we evaluate whether the collagen synthesis in fibroblasts is facilitated by the treatment of the peptides of the present invention, using the NIH3T3 cells (mouse fibroblast cell line, ATCC CRL-1658, USA). The fibroblasts were treated with the peptides of SEQ ID NOs: 1, 2, 3 and 5, in the concentrations of 0.1, 1 and 10 μM, respectively. After 48 hours, the cell extracts were subject to the Western blotting assay so as to measure the expressions of procollagen type-1. […] Therefore, it can be seen that the peptides of the present invention can inhibit skin aging derived from loss of collagen, especially skin wrinkle.
# [3] = tested on: profilaggrin; experiment: Control of the profilaggrin expression in human keratinocyte cell line HaCaT (Western blotting); type: cell-based; conditions: HaCaT cells, peptide 0.1, 1.0 and 10 μM, 48 hours, concentration-dependent, FIG. 3
# Protocol: Since profilaggrin is one of the principal elements for constituting skin barrier, we evaluate whether the profilaggrin synthesis in keratinocytes is facilitated by the treatment of the peptides of the present invention, using the HaCaT cells (human keratinocyte cell line, DKFZ, Heidelberg, Germany). The HaCaT cells were treated with the peptides of SEQ ID NOs: 3 and 5, in the concentrations of 0.1, 1.0 and 10 μM. After 48 hours, the cell extracts were subject to the Western blotting assay so as to measure the expressions of profilaggrin. […] Therefore, it can be seen that the peptides of the present invention have a skin-moisturizing activity through facilitating the profilaggrin expression.
Substance,proliferations of NIH3T3 cells [1],expressions of procollagen type-1 [2],expressions of profilaggrin [3]
"His-Ile-Thr (HIT; Peptide fragment) [SEQ ID NO: 2, adiponectin-derived peptide fragment]",significantly increased,increased,–
"Leu-Phe-Thr-Tyr-Asp (LFTYD; Peptide fragment) [SEQ ID NO: 3, adiponectin-derived peptide fragment]",significantly increased,increased,increased
"Phe-Thr-Tyr (FTY; Peptide fragment) [SEQ ID NO: 5, adiponectin-derived peptide fragment]",significantly increased,increased,increased
"Tyr-His-Ile-Thr (YHIT; Peptide fragment) [SEQ ID NO: 1, adiponectin-derived peptide fragment]",significantly increased,increased,–
